Measurements: PMC9860980, “Pharmacokinetics and Pharmacodynamics (PK/PD) of Corallopyronin A against Methicillin-Resistant Staphylococcus aureus” (Pharmaceutics, 2022)
Where two headings read alike, the source gives them in different places.

Experiments:
MRSA = settings: against MRSA; cited from earlier work
[1] = Biodistribution of CorA to organs/tissues of CD-1 mice (LC-MS/MS); assay type: in vivo
Protocol: (§1) For pharmacokinetic (PK) experiments, 6–8-week-old outbred female CD-1 mice (Charles River, Germany) were used. CorA was dissolved in PEG400/phosphate-buffered saline (PBS) (80:20 (v/v)). CorA was administered once daily at 60 mg/kg intraperitoneally (IP), 100 mg/kg IP, 100 mg/kg subcutaneously (SC) and 100 mg/kg perorally (PO). Moreover, CorA was administered at 30 mg/kg IP twice a day (BID) (administration time points t = 0 and 6 h after first dose). Animals (n = 3 per time point) receiving either 60 mg/kg IP or 100 mg/kg IP were euthanized at 10, 15, 30, 60 and 180 min after administration. Animals (n = 3 per time point) receiving 30 mg/kg IP BID were euthanized at 0.167, 0.25, 0.5, 1, 3, 5.75, 6.167, 6.25, 6.5, 7 and 9 h after first administration. Animals (n = 3 per time point) receiving 100 mg/kg SC or 100 mg/kg PO were euthanized at 0.25, 1, 2, 4 and 8 h after administration. At every time point blood was removed from the heart, collected into tubes coated with 0.5 M ethylenediaminetetraacetic acid (EDTA), immediately spun down at 15,870× g for 10 min at 4 °C and the resultant plasma transferred into a new tube. Furthermore, at every time point heart, lung, brain, liver, spleen, kidneys, and thigh muscles were removed and frozen in liquid nitrogen. For animals receiving 100 mg/kg PO also rectum (without feces), pharynx, skin, vaginal tract, subcutaneous fat tissue, visceral fat tissue and tibiae were removed and frozen in liquid nitrogen. Before removing the vaginal tract, a vaginal flush was performed.
(§2) Caffeine was used as an internal standard.

[2] = Pharmacokinetics of CorA in plasma of CD-1 mice; assay type: in vivo; settings: for Tmax / CL/F / Cmax / MRT / half-life / Vd/F / AUC0-t: CD-1 mice; for Vd/F: read-out: Vz/F_obs
Protocol: as §1
CorA plasma concentrations were quantified by HPLC-DAD with an Alliance e2695 separation module and a 2998 PDA detector (Waters, Eschborn, Germany). For the analysis, blood samples were centrifuged for 10 min at 4 °C and 3220× g. The generated plasma (20 µL) was mixed 1:3 with ice-cold acetonitrile, vortexed for 10 s and centrifuged for 25 min at 4 °C and 11,000× g. The supernatant was transferred into a HPLC vial and a sample volume of 5 µL was injected and quantified at a wavelength of 300 nm. A Waters XBridge® Shield RP18 column (3.5 μm, 2.1 × 100 mm, 130 A) was used at 30 °C. Two solvent gradients comprising mobile phase A (acetonitrile/water 5/95 with 5 mM ammonium acetate and 40 μL acetic acid per liter) and mobile phase B (acetonitrile/water 95/5 with 5 mM ammonium acetate and 40 μL acetic acid per liter) with a gradient from 70%A/30%B to 20%A/80%B, stepwise within 30 min and a flow rate of 0.3 mL/min were used. Data were analyzed by Empower 3 software and quantified using an external reference standard. No major matrix effects were seen when mixing ACN containing CorA with plasma.
as §2

[3] = female, mouse, plasma, 30 mg/kg IP (BID), mean ± SD
[4] = female, mouse, plasma, 60 mg/kg IP, mean ± SD
[5] = female, mouse, plasma, 100 mg/kg IP, mean ± SD
[6] = female, mouse, plasma, 100 mg/kg PO

C/C=C/C/C=C(\C)C(O)CC/C(C)=C/C=C(\C)C(=O)c1c(O)cc([C@H](C)CC/C=C/NC(=O)OC)oc1=O (some centres unmarked) [CorA, Corallopyronin A]
in vitro minimal inhibitory concentration (MIC) (MRSA): 0.125 µg/mL | CorA in vaginal flush ([1]; 100 mg/kg PO): not found | time initial peak concentrations in tissue are above the MIC ([1]; IP dosing): 2 to 3 h | AUC ([1]; brain, 30 mg/kg IP): 0.05 µg·h/g | AUC ([1]; brain, 60 mg/kg IP): 0.10 µg·h/g | AUC ([1]; brain, 100 mg/kg IP): 0.10 µg·h/g | AUC ([1]; brain, 100 mg/kg SC): 0.24 µg·h/g | time tissue concentration exceeds the in vitro MIC against MRSA ([1]; female, CD-1, mouse, in vivo, sc, 100 mg/kg): more than 9 h | Cmax ([1]; female, CD-1, mouse, thigh muscle, thigh, 30 mg/kg IP): 100 ng/g | Cmax ([1]; female, CD-1, mouse, thigh muscle, thigh, 60 mg/kg IP): 300 ng/g | Cmax ([1]; female, CD-1, mouse, thigh muscle, thigh, 100 mg/kg IP): 700 ng/g | Tmax ([1]; female, CD-1, mouse, 100 mg/kg PO, thigh, heart, kidney, spleen, lung, liver, fat, rectum, pharynx, vaginal tract, skin, tibia, read-out: time of peak concentration in the investigated tissues): 0.25 to 0.5 h | Cmax ([1]; female, CD-1, mouse, brain, 30 mg/kg IP): 40 ng/g | Cmax ([1]; female, CD-1, mouse, brain, 60 mg/kg IP): 70 ng/g | Cmax ([1]; female, CD-1, mouse, brain, 100 mg/kg IP): 100 ng/g | Cmax ([1]; female, CD-1, mouse, brain, 100 mg/kg SC): 150 ng/g | Cmax ([1]; female, CD-1, mouse, heart, 30 mg/kg IP): 1100 ng/g | Cmax ([1]; female, CD-1, mouse, heart, 60 mg/kg IP): 1800 ng/g | Cmax ([1]; female, CD-1, mouse, heart, 100 mg/kg IP): 3100 ng/g | Cmax ([1]; female, CD-1, mouse, heart, 100 mg/kg SC): 1480 ng/g | Cmax ([1]; female, CD-1, mouse, kidney, 30 mg/kg IP): 700 ng/g | Cmax ([1]; female, CD-1, mouse, kidney, 60 mg/kg IP): 1200 ng/g | Cmax ([1]; female, CD-1, mouse, kidney, 100 mg/kg IP): 1800 ng/g | Cmax ([1]; female, CD-1, mouse, kidney, 100 mg/kg SC): 1760 ng/g | Cmax ([1]; female, CD-1, mouse, liver, 30 mg/kg IP): 310 ng/g | Cmax ([1]; female, CD-1, mouse, liver, 60 mg/kg IP): 430 ng/g | Cmax ([1]; female, CD-1, mouse, liver, 100 mg/kg IP): 610 ng/g | Cmax ([1]; female, CD-1, mouse, liver, 100 mg/kg SC): 2300 ng/g | Cmax ([1]; female, CD-1, mouse, lung, 30 mg/kg IP): 1500 ng/g | Cmax ([1]; female, CD-1, mouse, lung, 60 mg/kg IP): 3100 ng/g | Cmax ([1]; female, CD-1, mouse, lung, 100 mg/kg IP): 4800 ng/g | Cmax ([1]; female, CD-1, mouse, lung, 100 mg/kg SC): 1270 ng/g | Cmax ([1]; female, CD-1, mouse, spleen, 30 mg/kg IP): 1400 ng/g | Cmax ([1]; female, CD-1, mouse, spleen, 60 mg/kg IP): 2100 ng/g | Cmax ([1]; female, CD-1, mouse, spleen, 100 mg/kg IP): 4900 ng/g | Cmax ([1]; female, CD-1, mouse, spleen, 100 mg/kg SC): 600 ng/g | AUC ([1]; heart, 30 mg/kg IP): 1.08 µg·h/g | AUC ([1]; heart, 60 mg/kg IP): 1.83 µg·h/g | AUC ([1]; heart, 100 mg/kg IP): 2.10 µg·h/g | AUC ([1]; heart, 100 mg/kg SC): 3.53 µg·h/g | AUC ([1]; kidney, 30 mg/kg IP): 0.49 µg·h/g | AUC ([1]; kidney, 60 mg/kg IP): 0.95 µg·h/g | AUC ([1]; kidney, 100 mg/kg IP): 1.01 µg·h/g | AUC ([1]; kidney, 100 mg/kg SC): 5.61 µg·h/g | AUC ([1]; liver, 30 mg/kg IP): 0.40 µg·h/g | AUC ([1]; liver, 60 mg/kg IP): 0.57 µg·h/g | AUC ([1]; liver, 100 mg/kg IP): 0.59 µg·h/g | AUC ([1]; liver, 100 mg/kg SC): 12.44 µg·h/g | AUC ([1]; lung, 30 mg/kg IP): 1.2 µg·h/g | AUC ([1]; lung, 60 mg/kg IP): 3.56 µg·h/g | AUC ([1]; lung, 100 mg/kg IP): 2.67 µg·h/g | AUC ([1]; lung, 100 mg/kg SC): 3.85 µg·h/g | time CorA levels above the MIC ([1]; lung, 100 mg/kg SC): ~ 4 h | time CorA levels exceed the in vitro MIC ([1]; lung, all three doses administered IP (30, 60, 100 mg/kg)): around 3 h | AUC ([1]; spleen, 30 mg/kg IP): 0.77 µg·h/g | AUC ([1]; spleen, 60 mg/kg IP): 1.34 µg·h/g | AUC ([1]; spleen, 100 mg/kg IP): 2.55 µg·h/g | AUC ([1]; spleen, 100 mg/kg SC): 1.4 µg·h/g | AUC ([1]; thigh, 30 mg/kg IP): 0.19 µg·h/g | time CorA levels exceed the MIC ([1]; thigh, 30 mg/kg IP): about one hour | AUC ([1]; thigh, 60 mg/kg IP): 0.49 µg·h/g | time CorA levels above the MIC ([1]; thigh, 60 mg/kg IP): around 3 h | AUC ([1]; thigh, 100 mg/kg IP): 0.60 µg·h/g | time CorA levels above the MIC ([1]; thigh, 100 mg/kg IP): around 3 h | peak concentrations in thigh above the in vitro determined MIC ([1]; thigh, 100 mg/kg IP, MIC 0.125 µg/mL): 3–5 × | CorA levels in thigh tissue ([1]; thigh, 100 mg/kg SC): no CorA levels were detected | time CorA was found in plasma after dosing ([2]; 100 mg/kg PO): up to 8 h | exposure in plasma lower compared to the same dose administered IP or SC ([2]; 100 mg/kg PO vs 100 mg/kg IP or SC): 3- to 4 fold | Tmax ([2]; female, CD-1, mouse, plasma, ip, 30 mg/kg, 30 mg/kg IP (BID), mean ± SD): 0.19 h | Tmax ([2]; female, CD-1, mouse, plasma, ip, 60 mg/kg, 60 mg/kg IP, mean ± SD): 0.19 h | Tmax ([2]; female, CD-1, mouse, plasma, ip, 100 mg/kg, 100 mg/kg IP, mean ± SD): 0.19 h | Tmax ([2]; female, CD-1, mouse, plasma, po, 100 mg/kg, 100 mg/kg PO): 0.5 ± 0.4 h | Tmax ([2]; female, CD-1, mouse, plasma, sc, 100 mg/kg, 100 mg/kg SC, mean ± SD): 3.33 ± 1.2 h | concentration at 8 h ([2]; female, CD-1, mouse, plasma, subcutaneous, 100 mg/kg SC, 8 h after dosing): > 10 µg/mL | CL/F [2, 3]: 0.89 mL/min/kg | Cmax [2, 3]: 194 ± 15.6 µg/mL | MRT [2, 3]: 3.61 ± 0.6 h | half-life [2, 3]: 2.33 ± 0.3 h | Vd/F [2, 3]: 0.18 L/kg | CL/F [2, 4]: 1.8 mL/min/kg | Cmax [2, 4]: 416 ± 39.1 µg/mL | MRT [2, 4]: 1.55 ± 0.2 h | half-life [2, 4]: 1.1 ± 0.2 h | Vd/F [2, 4]: 0.17 L/kg | CL/F [2, 5]: 3.43 ± 0.4 mL/min/kg | Cmax [2, 5]: 349 ± 12.4 µg/mL | MRT [2, 5]: 2.51 ± 1 h | half-life [2, 5]: 1.87 ± 0.8 h | Vd/F [2, 5]: 0.54 ± 0.2 L/kg | CL/F [2, 6]: 16.4 ± 4 mL/min/kg | Cmax [2, 6]: 89.8 ± 43.8 µg/mL | MRT [2, 6]: 3.13 ± 0.2 h | half-life [2, 6]: 2.88 ± 0.6 h | AUC0-t ([2]; female, mouse, plasma, 100 mg/kg PO, read-out: AUC 0-t): 94 ± 27.1 µg·h/mL | Vd/F [2, 6]: 4.09 ± 1.3 L/kg | Cmax ([2]; female, mouse, plasma, 100 mg/kg SC, mean ± SD): 107 ± 59.2 µg/mL | AUC0-t ([2]; plasma, 30 mg/kg IP (BID), mean ± SD): 303.88 ± 21.9 µg·h/mL | AUC0-t ([2]; plasma, 60 mg/kg IP, mean ± SD): 463.87 ± 18.8 µg·h/mL | AUC0-t ([2]; plasma, 100 mg/kg IP, mean ± SD): 339.53 ± 28.4 µg·h/mL | Cmax lower compared to the same dose administered IP ([2]; plasma, 100 mg/kg PO vs 100 mg/kg IP): 3- to 4 fold | AUC0-t ([2]; plasma, 100 mg/kg SC, mean ± SD): 459.32 ± 238.2 µg·h/mL
